Measured values: US11730712B2, “Functionalized long-chain hydrocarbon mono- and di-carboxylic acids and derivatives thereof, and their use for the prevention or treatment of disease” (ESPERVITA THERAPEUTICS, INC., priority 2021, dated 2023)
Values joined by “and” are separate entries in the source; they are usually repeats but may differ in a detail not shown here. Equal values may be shown once.

Legend:
Test in all cases: Kinase assay, wild type kinases
Type in all cases: biochemical
[1] = target: TNIK (Homo sapiens, UniProt Q9UKE5); details: compound 10 μM, 10 μM ATP, duplicate (Data 1, Data 2), >100 activation, <100 inhibition; for remaining activity at 10 µM: read-out: % Enzyme Activity (relative to DMSO controls), TNIK
Chain of TNIK (Q9UKE5 whole entry, species assumed): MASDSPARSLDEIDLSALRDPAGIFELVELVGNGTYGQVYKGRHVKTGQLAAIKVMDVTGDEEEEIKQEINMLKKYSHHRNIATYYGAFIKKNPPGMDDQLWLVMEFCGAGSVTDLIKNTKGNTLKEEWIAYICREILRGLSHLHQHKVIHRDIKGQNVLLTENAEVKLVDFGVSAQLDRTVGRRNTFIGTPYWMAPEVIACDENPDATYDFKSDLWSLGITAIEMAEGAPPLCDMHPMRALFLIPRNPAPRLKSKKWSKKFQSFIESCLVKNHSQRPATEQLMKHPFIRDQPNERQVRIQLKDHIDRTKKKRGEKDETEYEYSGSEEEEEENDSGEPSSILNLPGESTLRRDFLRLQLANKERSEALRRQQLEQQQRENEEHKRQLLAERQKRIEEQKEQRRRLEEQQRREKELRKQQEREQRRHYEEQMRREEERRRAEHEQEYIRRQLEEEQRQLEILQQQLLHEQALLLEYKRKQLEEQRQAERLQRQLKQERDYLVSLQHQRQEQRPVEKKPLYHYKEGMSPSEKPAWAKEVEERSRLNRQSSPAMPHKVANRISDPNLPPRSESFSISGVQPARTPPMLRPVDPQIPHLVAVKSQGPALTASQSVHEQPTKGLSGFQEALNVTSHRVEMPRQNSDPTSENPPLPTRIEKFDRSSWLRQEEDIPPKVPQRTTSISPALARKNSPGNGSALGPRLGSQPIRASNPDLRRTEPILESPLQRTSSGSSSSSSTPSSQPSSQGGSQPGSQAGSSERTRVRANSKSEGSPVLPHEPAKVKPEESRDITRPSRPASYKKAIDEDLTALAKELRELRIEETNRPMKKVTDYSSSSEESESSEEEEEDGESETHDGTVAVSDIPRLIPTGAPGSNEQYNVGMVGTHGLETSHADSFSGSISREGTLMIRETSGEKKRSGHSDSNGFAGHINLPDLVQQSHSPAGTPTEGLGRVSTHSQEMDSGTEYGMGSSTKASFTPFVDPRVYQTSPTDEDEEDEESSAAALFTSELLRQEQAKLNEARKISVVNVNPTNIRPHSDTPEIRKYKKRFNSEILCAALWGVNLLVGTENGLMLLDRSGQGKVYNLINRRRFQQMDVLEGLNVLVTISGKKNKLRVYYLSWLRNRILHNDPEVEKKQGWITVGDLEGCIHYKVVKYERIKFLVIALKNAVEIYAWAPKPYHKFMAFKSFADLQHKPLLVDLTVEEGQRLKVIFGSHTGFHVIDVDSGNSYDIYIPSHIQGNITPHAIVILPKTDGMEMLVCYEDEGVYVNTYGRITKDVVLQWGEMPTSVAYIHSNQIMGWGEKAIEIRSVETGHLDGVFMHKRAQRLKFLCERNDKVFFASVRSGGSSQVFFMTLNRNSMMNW

[2] = target: GSK3b (Homo sapiens, UniProt P49841); details: compound 10 μM, 10 μM ATP, duplicate (Data 1, Data 2), >100 activation, <100 inhibition; for remaining activity at 10 µM: read-out: % Enzyme Activity (relative to DMSO controls), GSK3b
Chain of GSK3b (P49841 whole entry, species assumed): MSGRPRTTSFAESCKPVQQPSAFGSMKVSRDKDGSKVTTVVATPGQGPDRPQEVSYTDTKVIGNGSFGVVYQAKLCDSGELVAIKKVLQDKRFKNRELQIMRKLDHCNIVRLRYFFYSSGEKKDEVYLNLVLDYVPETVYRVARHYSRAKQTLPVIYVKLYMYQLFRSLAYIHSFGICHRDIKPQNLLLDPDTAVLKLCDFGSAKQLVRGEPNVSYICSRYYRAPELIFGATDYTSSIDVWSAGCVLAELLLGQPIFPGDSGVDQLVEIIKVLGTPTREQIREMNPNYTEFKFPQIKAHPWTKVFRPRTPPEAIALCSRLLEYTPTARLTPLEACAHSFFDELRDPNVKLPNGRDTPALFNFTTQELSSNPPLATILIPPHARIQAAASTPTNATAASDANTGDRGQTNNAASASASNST

[3] = target: MAPKAPK2 (Homo sapiens, UniProt P49137); details: compound 10 μM, 10 μM ATP, duplicate (Data 1, Data 2), >100 activation, <100 inhibition; for remaining activity at 10 µM: read-out: % Enzyme Activity (relative to DMSO controls), MAPKAPK2
Chain of MAPKAPK2 (P49137 whole entry, species assumed): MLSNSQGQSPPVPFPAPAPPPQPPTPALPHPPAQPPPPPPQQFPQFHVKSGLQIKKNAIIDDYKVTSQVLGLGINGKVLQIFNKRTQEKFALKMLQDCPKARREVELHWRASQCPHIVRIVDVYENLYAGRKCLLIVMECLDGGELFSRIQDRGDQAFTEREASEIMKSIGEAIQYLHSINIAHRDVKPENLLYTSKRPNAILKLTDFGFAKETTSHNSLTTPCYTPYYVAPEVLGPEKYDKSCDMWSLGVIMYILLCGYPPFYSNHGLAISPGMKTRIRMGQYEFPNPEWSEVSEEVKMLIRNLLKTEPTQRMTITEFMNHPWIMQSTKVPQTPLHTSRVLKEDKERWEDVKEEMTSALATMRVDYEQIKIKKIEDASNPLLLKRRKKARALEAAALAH

[4] = target: MLCK/MYLK (Homo sapiens, UniProt Q15746); details: compound 10 μM, 10 μM ATP, duplicate (Data 1, Data 2), >100 activation, <100 inhibition; for remaining activity at 10 µM: read-out: % Enzyme Activity (relative to DMSO controls), MLCK/MYLK
[5] = target: Aurora B (Homo sapiens, UniProt Q96GD4); details: compound 10 μM, 10 μM ATP, duplicate (Data 1, Data 2), >100 activation, <100 inhibition; for remaining activity at 10 µM: read-out: % Enzyme Activity (relative to DMSO controls), Aurora B
Chain of Aurora B (Q96GD4 whole entry): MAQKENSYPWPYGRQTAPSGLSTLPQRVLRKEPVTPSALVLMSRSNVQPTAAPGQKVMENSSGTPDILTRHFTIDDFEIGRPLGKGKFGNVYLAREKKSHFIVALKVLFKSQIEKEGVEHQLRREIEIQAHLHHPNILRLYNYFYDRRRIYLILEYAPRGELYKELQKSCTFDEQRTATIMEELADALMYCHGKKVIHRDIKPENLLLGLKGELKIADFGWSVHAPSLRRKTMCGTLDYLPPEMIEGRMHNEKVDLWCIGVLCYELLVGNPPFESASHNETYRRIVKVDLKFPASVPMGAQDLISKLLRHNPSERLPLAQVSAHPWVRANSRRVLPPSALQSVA

[6] = target: MELK (Homo sapiens, UniProt Q14680); details: compound 10 μM, 10 μM ATP, duplicate (Data 1, Data 2), >100 activation, <100 inhibition; for remaining activity at 10 µM: read-out: % Enzyme Activity (relative to DMSO controls), MELK
[7] = target: c-Kit (Homo sapiens, UniProt P10721); details: compound 10 μM, 10 μM ATP, duplicate (Data 1, Data 2), >100 activation, <100 inhibition; for remaining activity at 10 µM: read-out: % Enzyme Activity (relative to DMSO controls), c-Kit
Chain of c-Kit (P10721 26-976): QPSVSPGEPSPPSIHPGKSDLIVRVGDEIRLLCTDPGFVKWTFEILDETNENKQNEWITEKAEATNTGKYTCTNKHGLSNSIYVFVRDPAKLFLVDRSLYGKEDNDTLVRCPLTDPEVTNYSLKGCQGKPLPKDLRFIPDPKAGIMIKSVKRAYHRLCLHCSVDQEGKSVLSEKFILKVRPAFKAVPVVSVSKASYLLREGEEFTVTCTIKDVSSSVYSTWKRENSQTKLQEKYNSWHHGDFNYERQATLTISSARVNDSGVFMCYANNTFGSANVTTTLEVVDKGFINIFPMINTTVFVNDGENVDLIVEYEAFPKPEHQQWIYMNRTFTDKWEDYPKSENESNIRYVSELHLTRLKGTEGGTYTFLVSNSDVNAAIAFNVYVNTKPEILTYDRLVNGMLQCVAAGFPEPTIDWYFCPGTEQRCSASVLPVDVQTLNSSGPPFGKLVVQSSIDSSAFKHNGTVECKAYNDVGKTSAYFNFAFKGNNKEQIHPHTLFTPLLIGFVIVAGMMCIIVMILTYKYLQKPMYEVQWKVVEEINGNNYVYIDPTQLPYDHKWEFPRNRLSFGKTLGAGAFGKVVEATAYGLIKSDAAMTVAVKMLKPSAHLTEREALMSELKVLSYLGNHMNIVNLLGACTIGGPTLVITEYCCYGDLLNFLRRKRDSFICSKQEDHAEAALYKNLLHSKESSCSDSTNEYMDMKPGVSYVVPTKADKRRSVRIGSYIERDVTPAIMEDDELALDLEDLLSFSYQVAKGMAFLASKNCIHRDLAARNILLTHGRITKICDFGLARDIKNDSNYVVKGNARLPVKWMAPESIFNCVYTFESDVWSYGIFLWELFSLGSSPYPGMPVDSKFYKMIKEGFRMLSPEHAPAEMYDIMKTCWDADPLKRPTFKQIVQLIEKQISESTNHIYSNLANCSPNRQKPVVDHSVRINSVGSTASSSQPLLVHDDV

[8] = target: CAMK2g (Homo sapiens, UniProt Q13555); details: compound 10 μM, 10 μM ATP, duplicate (Data 1, Data 2), >100 activation, <100 inhibition; for remaining activity at 10 µM: read-out: % Enzyme Activity (relative to DMSO controls), CAMK2g
[9] = target: FLT1/VEGFR1 (Homo sapiens, UniProt P17948); details: compound 10 μM, 10 μM ATP, duplicate (Data 1, Data 2), >100 activation, <100 inhibition; for remaining activity at 10 µM: read-out: % Enzyme Activity (relative to DMSO controls), FLT1/VEGFR1
Chain of FLT1/VEGFR1 (P17948 27-1338): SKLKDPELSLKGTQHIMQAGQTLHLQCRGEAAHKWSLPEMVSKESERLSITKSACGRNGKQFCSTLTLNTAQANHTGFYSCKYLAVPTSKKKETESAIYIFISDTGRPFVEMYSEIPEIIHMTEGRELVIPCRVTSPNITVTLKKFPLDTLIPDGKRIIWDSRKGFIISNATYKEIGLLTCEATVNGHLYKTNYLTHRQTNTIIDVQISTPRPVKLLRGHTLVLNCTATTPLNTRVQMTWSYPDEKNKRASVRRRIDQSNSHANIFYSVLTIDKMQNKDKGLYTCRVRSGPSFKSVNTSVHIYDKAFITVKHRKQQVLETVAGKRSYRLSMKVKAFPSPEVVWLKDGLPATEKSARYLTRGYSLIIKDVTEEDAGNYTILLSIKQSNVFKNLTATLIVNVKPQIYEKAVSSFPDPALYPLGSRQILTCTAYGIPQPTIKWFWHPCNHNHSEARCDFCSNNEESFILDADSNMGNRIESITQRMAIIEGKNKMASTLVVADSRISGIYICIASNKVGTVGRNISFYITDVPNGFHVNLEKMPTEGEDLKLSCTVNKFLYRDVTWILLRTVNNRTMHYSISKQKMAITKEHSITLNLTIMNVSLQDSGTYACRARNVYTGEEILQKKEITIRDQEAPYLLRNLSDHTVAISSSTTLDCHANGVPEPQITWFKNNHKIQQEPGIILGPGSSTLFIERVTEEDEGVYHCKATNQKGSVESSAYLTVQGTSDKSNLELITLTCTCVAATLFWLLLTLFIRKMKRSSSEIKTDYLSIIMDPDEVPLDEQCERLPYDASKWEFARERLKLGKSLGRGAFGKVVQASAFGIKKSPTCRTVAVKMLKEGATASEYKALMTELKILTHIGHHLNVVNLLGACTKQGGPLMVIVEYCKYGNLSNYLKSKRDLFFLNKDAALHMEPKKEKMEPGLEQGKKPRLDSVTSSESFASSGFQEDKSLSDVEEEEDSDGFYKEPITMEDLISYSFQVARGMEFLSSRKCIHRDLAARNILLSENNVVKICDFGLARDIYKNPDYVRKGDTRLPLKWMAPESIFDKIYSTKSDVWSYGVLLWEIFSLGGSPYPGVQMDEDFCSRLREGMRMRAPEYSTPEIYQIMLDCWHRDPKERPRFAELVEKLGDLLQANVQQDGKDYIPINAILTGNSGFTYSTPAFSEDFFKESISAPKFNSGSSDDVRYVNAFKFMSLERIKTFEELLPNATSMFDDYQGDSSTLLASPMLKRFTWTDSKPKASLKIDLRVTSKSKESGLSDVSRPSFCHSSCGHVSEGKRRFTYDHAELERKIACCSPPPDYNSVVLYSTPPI

[10] = target: T1, BMX/ETK (Homo sapiens, UniProt P51813); details: compound 10 μM, 10 μM ATP, duplicate (Data 1, Data 2), >100 activation, <100 inhibition; for remaining activity at 10 µM: read-out: % Enzyme Activity (relative to DMSO controls), BMX/ETK
T1 sequence (P51813 1-675): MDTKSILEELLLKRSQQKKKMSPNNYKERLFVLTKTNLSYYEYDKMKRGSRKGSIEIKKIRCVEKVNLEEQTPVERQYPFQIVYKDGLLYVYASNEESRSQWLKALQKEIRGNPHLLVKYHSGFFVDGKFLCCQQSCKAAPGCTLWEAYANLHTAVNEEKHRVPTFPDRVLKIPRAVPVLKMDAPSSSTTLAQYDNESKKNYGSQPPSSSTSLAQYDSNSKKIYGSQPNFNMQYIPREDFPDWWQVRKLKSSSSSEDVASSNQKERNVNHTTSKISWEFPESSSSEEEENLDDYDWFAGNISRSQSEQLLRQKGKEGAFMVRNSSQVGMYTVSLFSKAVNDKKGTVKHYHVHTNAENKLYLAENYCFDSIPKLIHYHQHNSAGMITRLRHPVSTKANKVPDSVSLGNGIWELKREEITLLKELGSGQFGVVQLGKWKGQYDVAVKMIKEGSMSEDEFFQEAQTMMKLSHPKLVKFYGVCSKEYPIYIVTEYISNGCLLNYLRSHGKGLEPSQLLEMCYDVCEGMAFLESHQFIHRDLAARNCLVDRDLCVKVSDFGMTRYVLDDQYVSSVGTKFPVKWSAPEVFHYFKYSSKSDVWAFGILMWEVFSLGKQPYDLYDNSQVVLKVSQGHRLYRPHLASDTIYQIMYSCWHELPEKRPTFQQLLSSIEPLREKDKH

[11] = target: T2, Aurora A (Homo sapiens, UniProt O14965); details: compound 10 μM, 10 μM ATP, duplicate (Data 1, Data 2), >100 activation, <100 inhibition; for remaining activity at 10 µM: read-out: % Enzyme Activity (relative to DMSO controls), Aurora A
T2 sequence (O14965 1-403): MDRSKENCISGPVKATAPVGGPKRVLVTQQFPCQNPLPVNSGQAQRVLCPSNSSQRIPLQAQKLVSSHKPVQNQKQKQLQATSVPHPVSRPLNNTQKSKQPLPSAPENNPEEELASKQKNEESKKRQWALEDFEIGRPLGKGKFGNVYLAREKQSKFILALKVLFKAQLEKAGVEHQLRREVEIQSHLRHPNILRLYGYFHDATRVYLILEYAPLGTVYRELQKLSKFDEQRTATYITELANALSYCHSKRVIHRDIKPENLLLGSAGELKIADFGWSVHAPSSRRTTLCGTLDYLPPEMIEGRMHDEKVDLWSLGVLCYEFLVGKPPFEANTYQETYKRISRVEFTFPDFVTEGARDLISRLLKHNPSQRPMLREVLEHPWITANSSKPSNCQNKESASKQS

SMILES | % Enzyme Activity (relative to DMSO controls), TNIK [1] | % Enzyme Activity (relative to DMSO controls), GSK3b [2] | % Enzyme Activity (relative to DMSO controls), MAPKAPK2 [3] | % Enzyme Activity (relative to DMSO controls), MLCK/MYLK [4] | % Enzyme Activity (relative to DMSO controls), Aurora B [5] | % Enzyme Activity (relative to DMSO controls), MELK [6] | % Enzyme Activity (relative to DMSO controls), c-Kit [7] | % Enzyme Activity (relative to DMSO controls), CAMK2g [8] | % Enzyme Activity (relative to DMSO controls), FLT1/VEGFR1 [9] | % Enzyme Activity (relative to DMSO controls), BMX/ETK [10] | % Enzyme Activity (relative to DMSO controls), Aurora A [11] | remaining activity at 10 µM [1] [%] | remaining activity at 10 µM [2] [%] | remaining activity at 10 µM [3] [%] | remaining activity at 10 µM [4] [%] | remaining activity at 10 µM [5] [%] | remaining activity at 10 µM [6] [%] | remaining activity at 10 µM [7] [%] | remaining activity at 10 µM [8] [%] | remaining activity at 10 µM [9] [%] | also measured
CC(C)(CCCCc1cccc(CCCCC(C)(C)C(=O)SCCNC(=O)CCNC(=O)[C@H](O)C(C)(C)COP(=O)(O)OP(=O)(O)OC[C@H]2O[C@@H](n3cnc4c(N)ncnc43)[C@H](O)[C@@H]2OP(=O)(O)O)c1)C(=O)O [Compound I-32-CoA, 6-[3-(5-Carboxy-5-methylhexyl)-phenyl]-2,2-dimethylhexanoic acid Coenzyme A Ester] | 70.02% and 66.13% | 23.69% and 22.51% | 17.17% and 15.90% | 3.21% and 1.59% | 33.27% and 30.67% | 28.56% and 27.35% | 49.53% and 49.21% | 35.05% and 34.20% | 52.06% and 51.61% | 49.54% and 43.87% | 13.04% and 11.95% |  |  |  |  |  |  |  |  |  | 
CC(C)(CCCCc1cccc(CCCCC(C)(C)C(=O)O)c1)C(=O)O [Compound I-32, 6-[3-(5-carboxy-5-methylhexyl)-phenyl]-2,2-dimethylhexanoic acid] |  |  |  |  |  |  |  |  |  |  |  | 101 | 78 | 91.7 | 106 | 71.4 | 114 | 73.6 | 73.2 | 92.3 | remaining activity at 10 µM [10]: 53.7%; remaining activity at 10 µM [11]: 94.9%
CC(C)(CCCCc1ccc(CCCCC(C)(C)C(=O)SCCNC(=O)CCNC(=O)[C@H](O)C(C)(C)COP(=O)(O)OP(=O)(O)OC[C@H]2O[C@@H](n3cnc4c(N)ncnc43)[C@H](O)[C@@H]2OP(=O)(O)O)cc1)C(=O)O [Compound I-1-CoA, 6-[4-(5-carboxy-5-methylhexyl)-phenyl]-2,2-dimethylhexanoic acid Coenzyme A ester] | 39.22% and 36.50% | 63.29% and 62.44% | 85.04% and 84.66% | 2.06% and −0.71% | 36.79% and 32.68% | 23.02% and 21.99% | 73.56% and 73.24% | 53.91% and 53.05% | 84.17% and 82.94% | 49.55% and 47.76% | 12.44% and 12.42% |  |  |  |  |  |  |  |  |  | 
CC(C)(CCCCc1ccc(CCCCC(C)(C)C(=O)O)cc1)C(=O)O [Compound I-1, 6-[4-(5-carboxy-5-methylhexyl)-phenyl]-2,2-dimethylhexanoic acid] |  |  |  |  |  |  |  |  |  |  |  | 106 | 83.2 | 93.1 | 110 | 69 | 110 | 85.5 | 60.6 | 90.3 | remaining activity at 10 µM [10]: 55%; remaining activity at 10 µM [11]: 89.1%
